# From US20100267561A1, “HERBICIDAL PYRIDAZINONE DERIVATIVES” (priority 2007, published 2010)
# What was measured:
# Test in all cases: Test C pre-/postemergence plant response
# Format in all cases: in vivo
# Settings in all cases: Preemergence
# [1] = test system: annual bluegrass (Poa annua)
# Excerpt: (§1) Seeds of plant species selected from annual bluegrass (Poa annua), blackgrass (Alopecurus myosuroides), canola (Brassica rapa), downy bromegrass (Bromus tectorum), green foxtail (Setaria viridis), Italian ryegrass (Lolium multiflorum), canarygrass (Phalaris minor), pigweed (Amaranthus retroflexus), spring barley (Hordeum vulgare), spring wheat (Triticum aestivum), wild mustard (Sinapis arvensis), wild oat (Avena fatua), windgrass (Apera spica-venti), winter barley (Hordeum vulgare), and winter wheat (Triticum aestivum) were planted and treated preemergence with test chemicals formulated in a non-phytotoxic solvent mixture which included a surfactant. At the same time, plants selected from these crop and weed species were treated with postemergence applications of some of the test chemicals formulated in the same manner. Plants ranged in height from 2 to 18 cm (1- to 4-leaf stage) for postemergence treatments.
# (§2) Treated plants and controls were maintained in a controlled growth environment for 15 to 25 days after which time all species were compared to controls and visually evaluated. Plant response ratings, summarized in Table C, are based on a scale of 0 to 100 where 0 is no effect and 100 is complete control. A dash (-) response means no test result.
# [2] = test system: downy bromegrass (Bromus tectorum)
# Excerpt: as §1, §2
# [3] = test system: wild oat (Avena fatua)
# Excerpt: as §1, §2
# [4] = test system: Italian ryegrass (Lolium multiflorum)
# Excerpt: as §1, §2
# [5] = test system: green foxtail (Setaria viridis)
# Excerpt: as §1, §2
# [6] = test system: windgrass (Apera spica-venti)
# Excerpt: as §1, §2
# [7] = test system: winter barley (Hordeum vulgare)
# Excerpt: as §1, §2
# [8] = test system: spring barley (Hordeum vulgare)
# Excerpt: as §1, §2
# [9] = test system: canarygrass (Phalaris minor)
# Excerpt: as §1, §2
# [10] = test system: winter wheat (Triticum aestivum)
# Excerpt: as §1, §2
# [11] = test system: blackgrass (Alopecurus myosuroides)
# Excerpt: as §1, §2
# [12] = test system: wild mustard (Sinapis arvensis)
# Excerpt: as §1, §2
# [13] = test system: pigweed (Amaranthus retroflexus)
# Excerpt: as §1, §2
# [14] = 8 g ai/ha, scale 0 to 100 (0 no effect, 100 complete control)
# [15] = 16 g ai/ha, scale 0 to 100 (0 no effect, 100 complete control)
# [16] = 31 g ai/ha, scale 0 to 100 (0 no effect, 100 complete control)
# [17] = 62 g ai/ha, scale 0 to 100, 0 no effect, 100 complete control
compound,measurement,setting,value
Cc1cc(-c2ccc(Cl)cc2)nn1-c1c(OS(=O)(=O)c2ccc(Cl)s2)cnn(C)c1=O [Compound 55],"Plant response rating, Bluegrass",[1]; [14],0
same,"Plant response rating, Bluegrass",[1]; [15],0
same,"Plant response rating, Bluegrass",[1]; [16],0
same,"Plant response rating, Bluegrass",[1]; [17],15
same,"Plant response rating, Bromegrass, Downy",[2]; [14],0
same,"Plant response rating, Bromegrass, Downy",[2]; [15],0
same,"Plant response rating, Bromegrass, Downy",[2]; [16],0
same,"Plant response rating, Bromegrass, Downy",[2]; [17],40
same,"Plant response rating, Oat, Wild",[3]; [14],0
same,"Plant response rating, Oat, Wild",[3]; [15],0
same,"Plant response rating, Oat, Wild",[3]; [16],0
same,"Plant response rating, Oat, Wild",[3]; [17],65
same,"Plant response rating, Ryegrass, Italian",[4]; [14],0
same,"Plant response rating, Ryegrass, Italian",[4]; [15],0
same,"Plant response rating, Ryegrass, Italian",[4]; [17],90
same,"Plant response rating, Foxtail, Green",[5]; [14],20
same,"Plant response rating, Foxtail, Green",[5]; [15],40
same,"Plant response rating, Foxtail, Green",[5]; [16],100
same,"Plant response rating, Foxtail, Green",[5]; [17],100
same,"Plant response rating, Windgrass",[6]; [14],0
same,"Plant response rating, Windgrass",[6]; [15],0
same,"Plant response rating, Windgrass",[6]; [16],0
same,"Plant response rating, Windgrass",[6]; [17],60
same,"Plant response rating, Barley, Winter",[7]; [14],0
same,"Plant response rating, Barley, Winter",[7]; [15],0
same,"Plant response rating, Barley, Winter",[7]; [16],0
same,"Plant response rating, Barley, Winter",[7]; [17],60
same,"Plant response rating, Barley, Spring",[8]; [14],0
same,"Plant response rating, Barley, Spring",[8]; [15],0
same,"Plant response rating, Barley, Spring",[8]; [16],0
same,"Plant response rating, Barley, Spring",[8]; [17],70
same,"Plant response rating, Canarygrass",[9]; [14],0
same,"Plant response rating, Canarygrass",[9]; [15],0
same,"Plant response rating, Canarygrass",[9]; [16],20
same,"Plant response rating, Canarygrass",[9]; [17],90
same,"Plant response rating, Wheat, Winter",[10]; [14],0
same,"Plant response rating, Wheat, Winter",[10]; [15],0
same,"Plant response rating, Wheat, Winter",[10]; [16],0
same,"Plant response rating, Wheat, Winter",[10]; [17],60
same,"Plant response rating, Blackgrass",[11]; [15],40
same,"Plant response rating, Blackgrass",[11]; [16],80
same,"Plant response rating, Blackgrass",[11]; [17],95
same,"Plant response rating, Mustard, Wild",[12]; [14],0
same,"Plant response rating, Mustard, Wild",[12]; [15],0
same,"Plant response rating, Mustard, Wild",[12]; [16],0
same,"Plant response rating, Mustard, Wild",[12]; [17],0
same,"Plant response rating, Pigweed",[13]; [14],0
same,"Plant response rating, Pigweed",[13]; [15],0
same,"Plant response rating, Pigweed",[13]; [16],0
Cc1cc(-c2ccc(Cl)cc2)nn1-c1c(OS(=O)(=O)c2cccc3ccccc23)cnn(C)c1=O [Compound 47],"Plant response rating, Bluegrass",[1]; [14],0
same,"Plant response rating, Bluegrass",[1]; [15],20
same,"Plant response rating, Bluegrass",[1]; [16],50
same,"Plant response rating, Bluegrass",[1]; [17],50
same,"Plant response rating, Bromegrass, Downy",[2]; [14],0
same,"Plant response rating, Bromegrass, Downy",[2]; [15],15
same,"Plant response rating, Bromegrass, Downy",[2]; [16],35
same,"Plant response rating, Bromegrass, Downy",[2]; [17],35
same,"Plant response rating, Oat, Wild",[3]; [14],0
same,"Plant response rating, Oat, Wild",[3]; [15],0
same,"Plant response rating, Oat, Wild",[3]; [16],75
same,"Plant response rating, Oat, Wild",[3]; [17],80
same,"Plant response rating, Ryegrass, Italian",[4]; [14],0
same,"Plant response rating, Ryegrass, Italian",[4]; [15],20
same,"Plant response rating, Ryegrass, Italian",[4]; [16],80
same,"Plant response rating, Ryegrass, Italian",[4]; [17],100
same,"Plant response rating, Foxtail, Green",[5]; [14],0
same,"Plant response rating, Foxtail, Green",[5]; [15],15
same,"Plant response rating, Foxtail, Green",[5]; [16],80
same,"Plant response rating, Foxtail, Green",[5]; [17],100
same,"Plant response rating, Windgrass",[6]; [14],0
same,"Plant response rating, Windgrass",[6]; [15],0
same,"Plant response rating, Windgrass",[6]; [16],30
same,"Plant response rating, Windgrass",[6]; [17],65
same,"Plant response rating, Barley, Winter",[7]; [14],0
same,"Plant response rating, Barley, Winter",[7]; [15],20
same,"Plant response rating, Barley, Winter",[7]; [16],40
same,"Plant response rating, Barley, Winter",[7]; [17],40
same,"Plant response rating, Barley, Spring",[8]; [14],10
same,"Plant response rating, Barley, Spring",[8]; [15],20
same,"Plant response rating, Barley, Spring",[8]; [16],35
same,"Plant response rating, Barley, Spring",[8]; [17],75
same,"Plant response rating, Canarygrass",[9]; [14],0
same,"Plant response rating, Canarygrass",[9]; [15],0
same,"Plant response rating, Canarygrass",[9]; [16],50
same,"Plant response rating, Canarygrass",[9]; [17],90
same,"Plant response rating, Wheat, Winter",[10]; [14],0
same,"Plant response rating, Wheat, Winter",[10]; [15],20
same,"Plant response rating, Wheat, Winter",[10]; [16],35
same,"Plant response rating, Wheat, Winter",[10]; [17],65
same,"Plant response rating, Blackgrass",[11]; [14],0
same,"Plant response rating, Blackgrass",[11]; [15],0
same,"Plant response rating, Blackgrass",[11]; [16],90
same,"Plant response rating, Blackgrass",[11]; [17],100
same,"Plant response rating, Mustard, Wild",[12]; [14],0
same,"Plant response rating, Mustard, Wild",[12]; [15],0
same,"Plant response rating, Mustard, Wild",[12]; [16],0
same,"Plant response rating, Mustard, Wild",[12]; [17],0
same,"Plant response rating, Pigweed",[13]; [14],0
same,"Plant response rating, Pigweed",[13]; [15],0
same,"Plant response rating, Pigweed",[13]; [16],0
same,"Plant response rating, Pigweed",[13]; [17],0
